ChEMBL document CHEMBL1137318, “Dipyridyl thiosemicarbazone chelators with potent and selective antitumor activity form iron complexes with redox activity” (J Med Chem, 2006)
Calls of active or inactive are those of the source. No cut-off for these calls is given here.

Assays:
[1] = Inhibition of Fe(3+)-mediated ascorbate oxidation at IBE of 0.1 relative to control; assay type: functional; conditions: dose or concentration not given here
[2] = Inhibition of Fe(3+)-mediated ascorbate oxidation at IBE of 1 relative to control; assay type: functional; conditions: dose or concentration not given here
[3] = Inhibition of Fe(3+)-mediated ascorbate oxidation at IBE of 3 relative to control; assay type: functional; conditions: dose or concentration not given here
[4] = Inhibition of hydroxylation of benzoate in presence of Fe(II) at IBE of 1 relative to control; assay type: functional; conditions: dose or concentration not given here
[5] = Inhibition of hydroxylation of benzoate in presence of Fe(II) at IBE of 3 relative to control; assay type: functional; conditions: dose or concentration not given here
[6] = tested on: SK-N-MC; assay: Antiproliferative activity against human SK-N-MC cells after 96 hrs by MTT assay; assay type: functional, cell-based
[7] = Increase in Fe(3+)-mediated ascorbate oxidation at IBE of 1 relative to control; assay type: functional
[8] = Increase in Fe(3+)-mediated ascorbate oxidation at IBE of 3 relative to control; assay type: functional
[9] = Increase in Fe(2+)-mediated hydroxyl radical production measured as hydroxylation of benzoate at IBE of 3 relative to control; assay type: functional
[10] = Increase in Fe(2+)-mediated hydroxyl radical production measured as hydroxylation of benzoate at IBE of 1 relative to control; assay type: functional
[11] = Increase in Fe(3+)-mediated ascorbate oxidation at IBE of 0.1 relative to control; assay type: functional
[12] = tested on: Nucleic Acid; assay: Binding affinity to DNA measured as hypochromicity of UV-vis spectra; assay type: nucleic-acid assay

Structure (SMILES)	IC50 [6] [µM]	Activity [7] [%]	Activity [8] [%]	Activity [9]	also measured
CC(=O)N(O)CCCCCNC(=O)CCC(=O)N(O)CCCCCNC(=O)CCC(=O)N(O)CCCCCN [DEFEROXAMINE]	8.58				inhibition [1]: 79%; inhibition [2]: 60%; inhibition [3]: 59%; inhibition [4]: 56%; inhibition [5]: 56%
O=C(O)CN(CCN(CC(=O)O)CC(=O)O)CC(=O)O		475	482	343%	Activity [10]: 309%
CN(C)C(=S)NN=C(c1ccccn1)c1ccccn1	0.01	439	406	Active	Activity [11]: Active
COc1cccc2c1C(=O)c1c(O)c3c(c(O)c1C2=O)C[C@@](O)(C(=O)CO)C[C@@H]3O[C@H]1C[C@H](N)[C@H](O)[C@H](C)O1					Activity [12]: 36%
